Measured values from patent publication US20250368644A1, “DURLOBACTAM CRYSTALLINE FORMS” (Entasis Therapeutics Limited, priority 2022, published 2025).
Where a name gives a salt, the structure may show the parent alone. Each block holds one compound with its values, some of them ahead of it.

Experiments:
[1] = tested on: β-lactamases commonly found in A. baumannii; details: preclinical studies, background statement; cited from earlier work
[2] = Stability of DUR, its salts and crystalline forms (observations in words); details: for Stability of the crystalline form: DUR-Ca polymorphs, solvent systems, Calcium salt
Procedure: (§1) Attempts were undertaken to form DUR-Ca via salt metathesis by slurry reaction of DUR-TBA salt with six calcium salts (CaCl2), CaBr2, Ca(BF4)2. Ca(OAc)2, Calcium D-gluconate and Calcium citrate) to find an alternative method to the ion exchange resin, which is very time consuming and costly to scale up.
A range of crystallization experiments were carried out, including evaporations, ambient temperature slurries, vapor stress at ambient temperature and temperature cycling, in many different solvents, or solvent mixtures, using crystalline DUR-Ca, DUR-TBA, and DUR-TEA salts as seeds.

[3] = Solubility of the salt in solvents (observations in words); format: physicochemical
From the text: as §1

[4] = Salt slurry experiments with DUR-Ca Form A (solid form after slurry in solvents); format: physicochemical; details: 3 days
From the text: DUR-Ca Form A was slurred in 26 solvents for 3 days. A new distinct form (assigned as Form C) was obtained in most of solvents (Table 19).

SMILES: CC1=C[C@@H]2CN(C(=O)N2OS(=O)(=O)O)[C@@H]1C(N)=O [DUR, Durlobactam]
Inhibition of β-lactamases [1]: inhibit the β-lactamases commonly found in A. baumannii
Chemical stability (degradation) ([2]; free acid): readily degraded

SMILES: CC1=C[C@@H]2CN(C(=O)N2OS(=O)(=O)O)[C@@H]1C(N)=O [DUR-TBA, Durlobactam Tetrabutylammonium salt]
Solubility ([3]; EtOH): soluble
Solubility ([3]; most solvents): soluble in most solvents

SMILES: CC1=CC2CN(C(=O)N2OS(=O)(=O)O)C1C(N)=O.c1ccncc1 (centres unmarked) [pyridine salt]
Stability of the salt as isolated solid [2]: not stable

Next, values leading:

Stability of the crystalline form ([2]; listed as Crystalline form A): unstable in certain solvent systems
Result (solid form after slurry) ([4]; Slurry 1, Methanol): Form C
Result (solid form after slurry) ([4]; Slurry 2, Ethanol): Form C
Result (solid form after slurry) ([4]; Slurry 3, IPA): Form C
Result (solid form after slurry) ([4]; Slurry 4, THF): Amorphous
Result (solid form after slurry) ([4]; Slurry 5, EtOAc): Form C
Result (solid form after slurry) ([4]; Slurry 6, Acetone): Form C
Result (solid form after slurry) ([4]; Slurry 7, Isobutanol): Form C
Result (solid form after slurry) ([4]; Slurry 8, Isopropyl Acetate): Form C
Result (solid form after slurry) ([4]; Slurry 9, Acetonitrile): Form C
Result (solid form after slurry) ([4]; Slurry 10, 2-Butanone): Form C
Result (solid form after slurry) ([4]; Slurry 11, Toluene): Mixture of Form A and C
Result (solid form after slurry) ([4]; Slurry 13, Tert-butyl methyl ether): Form C
Result (solid form after slurry) ([4]; Slurry 14, Propanol): Form C
Result (solid form after slurry) ([4]; Slurry 15, Isopentanol): Form C
Result (solid form after slurry) ([4]; Slurry 16, Butyl acetate): Form C
Result (solid form after slurry) ([4]; Slurry 17, Ethyl Formate): Form C
Result (solid form after slurry) ([4]; Slurry 18, 1,4-dioxane): Amorphous
Result (solid form after slurry) ([4]; Slurry 19, Butanol): Form C
Result (solid form after slurry) ([4]; Slurry 20, Heptane): Form C
Result (solid form after slurry) ([4]; Slurry 21, Pentane): Form C
Result (solid form after slurry) ([4]; Slurry 22, Cyclohexane): Form C
Result (solid form after slurry) ([4]; Slurry 23, Methylisobutyl Ketone): Form C
Result (solid form after slurry) ([4]; Slurry 24, Xylene): Form C
Result (solid form after slurry) ([4]; Slurry 25, Isobutyl acetate): Form C
Result (solid form after slurry) ([4]; Slurry 26, Ethyl ether): Form C
SMILES: CC1=C[C@@H]2CN(C(=O)N2OS(=O)(=O)O)[C@@H]1C(N)=O [DUR-Ca Form A, Durlobactam Calcium salt]

Stability of the crystalline form ([2]; listed as crystalline form C): more stable
SMILES: CC1=C[C@@H]2CN(C(=O)N2OS(=O)(=O)O)[C@@H]1C(N)=O [DUR-Ca Form C, Durlobactam Calcium salt]
